Measured values as given in ChEMBL document CHEMBL1201862, “PubChem BioAssay data set” (2004).
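Dose response: 5 concentrations. Exposure: 48 h. Format: 96-well plates. Endpoint: linear interpolation; highest concentration if not reached. GI50: concentration for 50% inhibition of growth.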 Active and inactive are the calls of the source. No stated cut-off is given here; in the data, active = GI50 up to about 1.1 µM and inactive = higher.

Key:
Assay in all cases: NCI tumour cell line growth inhibition, 48 h
DU-145 = test system: DU-145
Hs-578T = test system: Hs-578T
SN12C = test system: SN12C
LXFL 529 = test system: LXFL 529
NCI-H23 = test system: NCI-H23
HCT-116 = test system: HCT-116
SK-MEL-28 = test system: SK-MEL-28
HL-60 = test system: HL-60
HCC 2998 = test system: HCC 2998
MDA-MB-231 = test system: MDA-MB-231
A498 = test system: A498
SW-620 = test system: SW-620
ACHN = test system: ACHN
NCI-H460 = test system: NCI-H460
COLO 205 = test system: COLO 205
A549 = test system: A549
MOLT-4 = test system: MOLT-4
SF-268 = test system: SF-268
RPMI-8226 = test system: RPMI-8226
UO-31 = test system: UO-31

Measured: GI50

NC(=O)c1ncn2c(=O)n(CCCl)nnc12 [MITOZOLOMIDE]
inactive: DU-145 123 µM | Hs-578T 208 µM | SN12C 115 µM | LXFL 529 > 100 µM | NCI-H23 149 µM | HCT-116 132 µM | SK-MEL-28 252 µM | HL-60 30.8 µM | HCC 2998 172 µM | MDA-MB-231 220 µM | A498 191 µM | SW-620 135 µM | ACHN 60.4 µM | NCI-H460 50.2 µM | COLO 205 112 µM | A549 180 µM | MOLT-4 45.2 µM | SF-268 31.6 µM | RPMI-8226 229 µM | UO-31 236 µM
